Literature values in US20180000940A1, “INJECTABLE FORMULATIONS OF PARACETAMOL” (TROIKAA PHARMACEUTICALS LIMITED, priority 2014, published 2018).

Conditions: solution no 20: 30% propylene-glycol, 40% polyethylene-glycol 400, 30% water; 20° C.

CC(=O)Nc1ccc(O)cc1 [paracetamol, Paracetamol]
Amount of paracetamol that can be dissolved: about 200 mg/ml
